Laboratory results from patent US10087178B2, “Substituted spiropyrido[1,2-a]pyrazine derivative and medicinal use thereof as HIV integrase inhibitor” (priority 2012, dated 2018).
pEC50: −log10 of the molar value. Counter-ions that a name gives are not always drawn.

These compounds were tested on HIV-1 NL4-3 strain (assay: Evaluation of antiviral activity: acute infection system of MT-4 cell with HIV-1 NL4-3 strain). Details: Human immunodeficiency virus 1, NL43, MT4, 120 h, MT-4 cells infected with HIV-1 NL4-3 strain (MOI 0.05), cultured 5 days, Cell Titer-Glo; read-out: antiviral activity (EC50).
Format: cell-based
`CCO[C@H]1C[C@]2(CN(C)C(=O)c3c(O)c(=O)c(C(=O)NCc4ccc(F)cc4F)cn32)C1` [Example S51, N-(2,4-difluorobenzyl)-cis-3-ethoxy-9′-hydroxy-2′-methyl-1′,8′-dioxo-1′,2′,3′,8′-tetrahydrospiro[cyclobutane-1,4′-pyrido[1,2-a]pyrazine]-7′-carboxamide hydrochloride] gave a pEC50 of 8.62.
`CC(C)N1C(=O)c2c(O)c(=O)c(C(=O)NCc3ccc(F)cc3F)cn2C[C@]12C[C@H](O)C2` [Example S55, N-(2,4-difluorobenzyl)-cis-3,9′-dihydroxy-2′-isopropyl-1′,8′-dioxo-1′,2′,4′,8′-tetrahydrospiro[cyclobutane-1,3′-pyrido[1,2-a]pyrazine]-7′-carboxamide hydrochloride] gave a pEC50 of 7.48.
For `COC[C@H]1C[C@@]12CN(C(C)C)C(=O)c1c(O)c(=O)c(C(=O)NCc3cccc(Cl)c3F)cn12` [Example T12, (1S,2S)-N-(3-chloro-2-fluorobenzyl)-9′-hydroxy-2′-isopropyl-2-(methoxymethyl)-1′,8′-dioxo-1′,2′,3′,8′-tetrahydrospiro[cylcopropane-1,4′-pyrido[1,2-a]pyrazine]-7′-carboxamide hydrochloride], the pEC50 was 8.24.
Compound `COC[C@H]1C[C@]2(CN(C(C)C)C(=O)c3c(O)c(=O)c(C(=O)NCc4ccc(F)cc4F)cn32)C1` [Example S23, N-(2,4-difluorobenzyl)-9′-hydroxy-2′-isopropyl-cis-3-(methoxymethyl)-1′,8′-dioxo-1′,2′,3′,8′-tetrahydrospiro[cyclobutane-1,4′-pyrido[1,2-a]pyrazine]-7′-carboxamide hydrochloride] has a pEC50 of 8.20.
Compound `COc1ccc(CNC(=O)c2cn3c(c(O)c2=O)C(=O)N(C)C[C@]32C[C@@H](CO)C2)c(F)c1Cl` [Example S49] has a pEC50 of 7.19.
Compound `COC[C@H]1C[C@@]12CN(C)C(=O)c1c(O)c(=O)c(C(=O)NCc3cc(OC)cc(Cl)c3F)cn12` [Example T21, (1S,2S)-N-(3-chloro-2-fluoro-5-methoxybenzyl)-9′-hydroxy-2-(methoxymethyl)-2′-methyl-1′,8′-dioxo-1′,2′,3′,8′-tetrahydrospiro[cyclopropane-1,4′-pyrido[1,2-a]pyrazine]-7′-carboxamide] has a pEC50 of 8.21.
`CCO[C@H]1C[C@@]2(Cn3cc(C(=O)NCc4cccc(Cl)c4F)c(=O)c(O)c3C(=O)N2CC)C1` [Example S56, N-(3-chloro-2-fluorobenzyl)- trans-3-ethoxy-2′-ethyl-9′-hydroxy-1′,8′-dioxo-1′,2′,4′,8′-tetrahydrospiro[cyclobutane-1,3′-pyrido[1,2-a]pyrazine]-7′-carboxamide hydrochloride] gave a pEC50 of 8.29.
Compound `COC[C@H]1C[C@]2(CN(C)C(=O)c3c(OC(=O)C(C)C)c(=O)c(C(=O)NCc4cccc(Cl)c4F)cn32)C1` [Example S68, 7′-(3-chloro-2-fluorobenzylcarbamoyl)-cis-3-(methoxymethyl)-2′-methyl-1′,8′-dioxo-1′,2′,3′,8′-tetrahydrospiro[cyclobutane-1,4′-pyrido[1,2-a]pyrazin]-9′-yl isobutyrate] has a pEC50 of 9.15.

Same assay, conditions: Human immunodeficiency virus 1, NL43, MT4, 120 h, antiviral activity; MT-4 cells infected with HIV-1 NL4-3 (MOI 0.05), 5 days culture, Cell Titer-Glo luminescence
`COC[C@@H]1C[C@]12CN(C(C)C)C(=O)c1c(O)c(=O)c(C(=O)NCc3ccc(F)cc3F)cn12` [Example 12, (1R,2R)—N-(2,4-difluorobenzyl)-9′-hydroxy-2′-isopropyl-2-(methoxymethyl)-1′,8′-dioxo-1′,2′,3′,8′-tetrahydrospiro[cyclopropane-1,4′-pyrido[1,2-a]pyrazine]-7′-carboxamide hydrochloride] was tested, and the pEC50 was 8.30.
`COC[C@H]1C[C@@]12CN(C(C)C)C(=O)c1c(O)c(=O)c(C(=O)NCc3ccc(F)cc3F)cn12` [Example 10, (1S,2S)—N-(2,4-difluorobenzyl)-9′-hydroxy-2′-isopropyl-2-(methoxymethyl)-1′,8′-dioxo-1′,2′,3′,8′-tetrahydrospiro[cyclopropane-1,4′-pyrido[1,2-a]pyrazine]-7′-carboxamide hydrochloride] gave a pEC50 of 8.44.
Compound `CO[C@H]1C[C@@]2(CN(C)C(=O)c3c(O)c(=O)c(C(=O)NCc4cccc(Cl)c4F)cn32)C1` [Example 2, N-(3-chloro-2-fluorobenzyl)-9′-hydroxy-trans-3-methoxy-2′-methyl-1′,8′-dioxo-1′,2′,3′,8′-tetrahydrospiro[cyclobutane-1,4′-pyrido[1,2-a]pyrazine]-7′-carboxamide hydrochloride] has a pEC50 of 8.38.

Same assay, conditions: Human immunodeficiency virus 1, NL43, MT4, 120 h, antiviral activity; MT-4 cells infected with HIV-1 NL4-3 (MOI 0.05), 5 days culture, Cell Titer-Glo luminescence; read-out: EC50
In the case of `COC[C@@H]1C[C@@]12CN(C(C)C)C(=O)c1c(O)c(=O)c(C(=O)NCc3ccc(F)cc3F)cn12` [Example 16, (1S,2R)—N-(2,4-difluorobenzyl)-9′-hydroxy-2′-isopropyl-2-(methoxymethyl)-1′,8′-dioxo-1′,2′,3′,8′-tetrahydrospiro[cyclopropane-1,4′-pyrido[1,2-a]pyrazine]-7′-carboxamide], the pEC50 was 8.21.
Compound `CO[C@H]1C[C@@]2(CN(C)C(=O)c3c(O)c(=O)c(C(=O)NCc4ccc(F)cc4F)cn32)C1` [Example S13, N-(2,4-difluorobenzyl)-9′-hydroxy-trans-3-methoxy-2′-methyl-1′,8′-dioxo-1′,2′,3′,8′-tetrahydrospiro[1,2-a]pyrazine]-1,4′-pyrido[1,2-a]pyrazine]-7′-carboxamide hydrochloride] has a pEC50 of 8.35.
`CCN1C[C@]2(C[C@@H](O)C2)n2cc(C(=O)NCc3ccc(F)cc3F)c(=O)c(O)c2C1=O` [Example S17, N-(2,4-difluorobenzyl)-2′-ethyl-trans-3,9′-dihydroxy-1′,8′-dioxo-1′,2′,3′,8′-tetrahydrospiro[cyclobutane-1,4′-pyrido[1,2-a]pyrazine]-7′-carboxamide hydrobromide] showed a pEC50 of 7.70.
`COC[C@H]1C[C@]12CN(C(C)C)C(=O)c1c(O)c(=O)c(C(=O)NCc3ccc(F)cc3F)cn12` [Example 14, (1R,2S)—N-(2,4-difluorobenzyl)-9′-hydroxy-2′-isopropyl-2-(methoxymethyl)-1′,8′-dioxo-1′,2′,3′,8′-tetrahydrospiro[cyclopropane-1,4′-pyrido[1,2-a]pyrazine]-7′-carboxamide] was tested, and the pEC50 was 8.04.
`CO[C@H]1C[C@@]2(CN(C(C)C)C(=O)c3c(O)c(=O)c(C(=O)NCc4ccc(F)cc4F)cn32)C1` [Example S5, N-(2,4-difluorobenzyl)-9′-hydroxy-2′-isopropyl-trans-3-methoxy-1′,8′-dioxo-1′,2′,3′,8′-tetrahydrospiro[cyclobutane-1,4′-pyrido[1,2-a]pyrazine]-7′-carboxamide hydrochloride] gave a pEC50 of 8.36.

Same assay, conditions: Human immunodeficiency virus 1, NL43, MT4, 120 h, read-out: antiviral activity (EC50), MT-4 cells infected with HIV-1 NL4-3 strain (MOI 0.05), cultured 5 days, Cell Titer-Glo
In the case of `CCN1C(=O)c2c(O)c(=O)c(C(=O)NCc3ccc(F)cc3F)cn2C[C@@]12C[C@@H]2CO` [Example T39, (1S,2S)-N-(2,4-difluorobenzyl)-2′-ethyl-9′-hydroxy-2-(hydroxymethyl)-1′,8′-dioxo-1′,2′,4′,8′-tetrahydrospiro[cyclopropane-1,3′-pyrido[1,2-a]pyrazine]-7′-carboxamide hydrochloride], the pEC50 was 8.55.
Compound `CCOC[C@@H]1C[C@]12CN(C)C(=O)c1c(O)c(=O)c(C(=O)NCc3ccc(OC)c(Cl)c3F)cn12` [Example T35, (1R,2R)-N-(3-chloro-2-fluoro-4-methoxybenzyl)-2-(ethoxymethyl)-9′-hydroxy-2′-methyl-1′,8′-dioxo-1′,2′,3′,8′-tetrahydrospiro[cyclopropane-1,4′-pyrido[1,2-a]pyrazine]-7′-carboxamide hydrochloride] has a pEC50 of 7.77.
`CCN1C[C@]2(C[C@H]2COC)n2cc(C(=O)NCc3ccc(F)cc3F)c(=O)c(O)c2C1=O` [Example T9, (1R,2R)-N-(2,4-difluorobenzyl)-2′-ethyl-9′-hydroxy-2-(methoxymethyl)-1′,8′-dioxo-1′,2′,3′,8′-tetrahydrospiro[cyclopropane-1,4′-pyrido[1,2-a]pyrazine]-7′-carboxamide hydrochloride] gave a pEC50 of 8.24.
For `CC(C)N1C[C@@]2(C[C@@H]2CO)n2cc(C(=O)NCc3cccc(Cl)c3F)c(=O)c(O)c2C1=O` [Example T11, (1S,2S)-N-(3-chloro-2-fluorobenzyl)-9′-hydroxy-2-(hydroxymethyl)-2′-isopropyl-1′,8′-dioxo-1′,2′,3′,8′-tetrahydrospiro[cyclopropane-1,4′-pyrido[1,2-a]pyrazine]-7′-carboxamide hydrochloride], the pEC50 was 8.22.
With `CC(C)N1C[C@]2(C[C@H]2C(=O)N(C)C)n2cc(C(=O)NCc3cccc(Cl)c3F)c(=O)c(O)c2C1=O` [Example T14, (1R,2R)-N^7′-(3-chloro-2-fluorobenzyl)-9′-hydroxy-2′-isopropyl-N^2,N^2-dimethyl-1′,8′-dioxo-1′,2′,3′,8′-tetrahydrospiro[cyclopropane-1,4′ -pyrido[1,2-a]pyrazine]-2,7′-dicarboxamide hydrochloride] the pEC50 was 8.32.
Work on `CCOc1ccc(CNC(=O)c2cn3c(c(O)c2=O)C(=O)N(C)C[C@@]32C[C@@H]2COC)c(F)c1Cl` [Example T37, (1S,2S)-N-(3-chloro-4-ethoxy-2-fluorobenzyl)-9′-hydroxy-2-(methoxymethyl)-2′-methyl-1′,8′-dioxo-1′,2′,3′,8′-tetrahydrospiro[cyclopropane-1,4′-pyrido[1,2-a]pyrazine]-7′-carboxamide hydrochloride] yielded a pEC50 of 7.03.
Work on `CCN1C[C@]2(C[C@H]2CO)n2cc(C(=O)NCc3ccc(F)cc3F)c(=O)c(O)c2C1=O` [Example T10, (1R,2R)-N-(2,4-difluorobenzyl)-2′-ethyl-9′-hydroxy-2-(hydroxymethyl)-1′,8′-dioxo-1′,2′,3′,8′-tetrahydrospiro[cyclopropane-1,4′-pyrido[1,2-a]pyrazine]-7′-carboxamide hydrochloride] yielded a pEC50 of 7.80.
For `CCN1C[C@@]2(C[C@H]2CO)n2cc(C(=O)NCc3cccc(Cl)c3F)c(=O)c(O)c2C1=O` [Example T29, (1S,2R)-N-(3-chloro-2-fluorobenzyl)-2′-ethyl-9′-hydroxy-2-(hydroxymethyl)-1′,8′-dioxo-1′,2′,3′,8′-tetrahydrospiro[cyclopropane-1,4′-pyrido[1,2-a]pyrazine]-7′-carboxamide hydrochloride], the pEC50 was 8.32.
